Test results reported in ChEMBL document CHEMBL5385872, “Design and syntheses of a bimolecular STING agonist based on the covalent STING antagonist” (Eur J Med Chem, 2023).
Calls of active or inactive are those of the source. No cut-off for these calls is given here.

How the values were obtained:
[1] = system: Mus musculus; experiment: Induction of immune-activation effect in wild type female BALB/c mouse assessed as increase in serum TNFalpha level at 15 to 30 mg/kg, ip measured after 24 to 48 hrs by ELISA relative to control; format: functional, organism-based; conditions: dose 15-30 mg/kg, time 24-48 hrs
[2] = molecular target: Stimulator of interferon genes protein (Homo sapiens) (UniProt Q86WV6); experiment: Induction of STING-dependent gene expression in human HT-1080 cells assessed as IFNalpha mRNA expression at 20 uM incubated for 8 hrs by qRT-PCR analysis; format: cell-based; conditions: filed as agonist
Sequence of Stimulator of interferon genes protein (Homo sapiens) (Q86WV6 whole entry): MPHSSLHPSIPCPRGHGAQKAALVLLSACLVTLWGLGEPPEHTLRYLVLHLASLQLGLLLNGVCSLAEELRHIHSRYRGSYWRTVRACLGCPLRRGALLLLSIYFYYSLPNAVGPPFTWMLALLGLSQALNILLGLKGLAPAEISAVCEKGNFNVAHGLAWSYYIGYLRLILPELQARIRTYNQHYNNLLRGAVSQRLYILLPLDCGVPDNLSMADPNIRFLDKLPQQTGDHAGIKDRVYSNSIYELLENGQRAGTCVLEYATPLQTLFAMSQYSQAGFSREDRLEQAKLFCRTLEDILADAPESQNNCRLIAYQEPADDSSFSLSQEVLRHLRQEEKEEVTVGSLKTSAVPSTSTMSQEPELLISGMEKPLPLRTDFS

[3] = molecular target: T1, Stimulator of interferon genes protein (Mus musculus) (UniProt Q3TBT3); experiment: Agonist activity at STING in mouse BMDM cells assessed as change in TBK1 phosphorylation (initially increase and then decreased) at 20 uM measured after 5 hrs by Western blot analysis; format: cell-based; conditions: filed as agonist
T1 sequence (whole entry): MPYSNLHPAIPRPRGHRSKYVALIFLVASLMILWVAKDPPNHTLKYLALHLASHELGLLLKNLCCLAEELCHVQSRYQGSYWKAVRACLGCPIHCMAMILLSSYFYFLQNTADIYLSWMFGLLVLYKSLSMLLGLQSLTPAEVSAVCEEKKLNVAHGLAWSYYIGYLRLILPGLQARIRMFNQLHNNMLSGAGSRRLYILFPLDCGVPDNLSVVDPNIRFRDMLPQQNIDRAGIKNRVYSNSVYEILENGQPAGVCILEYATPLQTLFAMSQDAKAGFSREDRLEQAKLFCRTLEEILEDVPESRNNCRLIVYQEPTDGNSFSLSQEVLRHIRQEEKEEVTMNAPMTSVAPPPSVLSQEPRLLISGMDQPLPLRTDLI

[4] = molecular target: Stimulator of interferon genes protein (Homo sapiens) (UniProt Q86WV6); experiment: Induction of oligomerization of STING in HEK-293T cells stably expressing STING-Flag ( unknown origin) measured after 4 hrs by immunoprecipitation assay; format: cell-based; conditions: filed as agonist
[5] = molecular target: T1, Stimulator of interferon genes protein (Mus musculus); experiment: Induction of STING-dependent gene expression in mouse BMDC cells assessed as IFNalpha mRNA expression at 20 uM incubated for 8 hrs by qRT-PCR analysis; format: cell-based; conditions: filed as agonist
[6] = molecular target: Stimulator of interferon genes protein (Homo sapiens) (UniProt Q86WV6); experiment: Induction of STING-dependent gene expression in human HT-1080 cells assessed as IFNbeta mRNA expression at 20 uM incubated for 8 hrs by qRT-PCR analysis; format: cell-based; conditions: filed as agonist
[7] = molecular target: T1, Stimulator of interferon genes protein (Mus musculus); experiment: Induction of STING-dependent gene expression in mouse BMDC cells assessed as IFNbeta mRNA expression at 20 uM incubated for 8 hrs by qRT-PCR analysis; format: cell-based; conditions: filed as agonist
[8] = molecular target: T1, Stimulator of interferon genes protein (Mus musculus); experiment: Agonist activity at STING in mouse BMDC cells assessed as change in TBK1 phosphorylation (initially increase and then decreased) at 20 uM measured after 5 hrs by Western blot analysis; format: cell-based; conditions: filed as agonist
[9] = molecular target: T1, Stimulator of interferon genes protein (Mus musculus); experiment: Induction of STING dimerization in mouse BMDM cells assessed as dimerization (initially increase and then decreased) at 2.5 to 20 uM measured after 5 hrs by Western blot analysis; format: cell-based; conditions: filed as agonist, dose 2.5-20 µM
[10] = system: Mus musculus; experiment: Induction of immune-activation effect in wild type female BALB/c mouse assessed as increase in serum IFNbeta level at 15 to 30 mg/kg, ip measured after 24 to 48 hrs by ELISA relative to control; format: functional, organism-based; conditions: dose 15-30 mg/kg, time 24-48 hrs
[11] = molecular target: T1, Stimulator of interferon genes protein (Mus musculus); experiment: Induction of STING dimerization in mouse BMDC cells assessed as dimerization (initially increase and then decreased) at 2.5 to 20 uM measured after 5 hrs by Western blot analysis; format: cell-based; conditions: filed as agonist, dose 2.5-20 µM

Row | Activity [2] | Activity [3] | Activity [4] | Activity [5] | Activity [6] | Activity [7] | Activity [8] | Activity [9] | Activity [11] | Structure (SMILES) | Activity [1] | Activity [10]
1 | Active | Active | Active | Active | Active | Active | Active | Active | Active | O=C(NCCCCCCCCNC(=O)c1ccc([N+](=O)[O-])o1)c1ccc([N+](=O)[O-])o1 | Active | Active
2 | Active | Active | Active | Active | Active | Active | Active | Active | Active | O=C(NCCCCCCCCCNC(=O)c1ccc([N+](=O)[O-])o1)c1ccc([N+](=O)[O-])o1 | – | –
